One block for each molecule: values may come before it.
Tested on: 186277-243-T-J2-PDC multi-cell spheroid viability
Experiment: Anticancer human tumor 186277-243-T-J2-PDC patient-derived colon adenocarcinoma cell line growth inhibition [PI3K]
Settings: for viability, T/C: stronger effect = lower value
Procedure, shortened: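 We assembled tumor spheroids that included a stromal compartment of HUVEC and MSCs, then exposed them to targeted agents alone and together with PI3K pathway inhibitors. Concentration series descended by half-log from clinically achievable Cmax levels. Viability served as the endpoint.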

[1] = curve of first compound, second compound 0.0316 µM
[2] = curve of first compound, second compound 0.1 µM
[3] = curve of first compound, second compound 0.316 µM
[4] = curve of first compound, second compound 1 µM
[5] = curve of first compound, second compound 3.16 µM
[6] = curve of first compound, second compound 10 µM
[7] = second compound 0.0316 µM, first compound 0.0316 µM
[8] = second compound 0.0316 µM, first compound 0.1 µM
[9] = second compound 0.0316 µM, first compound 0.316 µM
[10] = second compound 0.0316 µM, first compound 1 µM
[11] = second compound 0.0316 µM, first compound 3.16 µM
[12] = second compound 0.0316 µM, first compound 10 µM
[13] = second compound 0.1 µM, first compound 0.0316 µM
[14] = second compound 0.1 µM, first compound 0.1 µM
[15] = second compound 0.1 µM, first compound 0.316 µM
[16] = second compound 0.1 µM, first compound 1 µM
[17] = second compound 0.1 µM, first compound 3.16 µM
[18] = second compound 0.1 µM, first compound 10 µM
[19] = second compound 0.316 µM, first compound 0.0316 µM
[20] = second compound 0.316 µM, first compound 0.1 µM
[21] = second compound 0.316 µM, first compound 0.316 µM
[22] = second compound 0.316 µM, first compound 1 µM
[23] = second compound 0.316 µM, first compound 3.16 µM
[24] = second compound 0.316 µM, first compound 10 µM
[25] = second compound 1 µM, first compound 0.0316 µM
[26] = second compound 1 µM, first compound 0.1 µM
[27] = second compound 1 µM, first compound 0.316 µM
[28] = second compound 1 µM, first compound 1 µM
[29] = second compound 1 µM, first compound 3.16 µM
[30] = second compound 1 µM, first compound 10 µM
[31] = second compound 3.16 µM, first compound 0.0316 µM
[32] = second compound 3.16 µM, first compound 0.1 µM
[33] = second compound 3.16 µM, first compound 0.316 µM
[34] = second compound 3.16 µM, first compound 1 µM
[35] = second compound 3.16 µM, first compound 3.16 µM
[36] = second compound 3.16 µM, first compound 10 µM
[37] = second compound 10 µM, first compound 0.0316 µM
[38] = second compound 10 µM, first compound 0.1 µM
[39] = second compound 10 µM, first compound 0.316 µM
[40] = second compound 10 µM, first compound 1 µM
[41] = second compound 10 µM, first compound 3.16 µM
[42] = second compound 10 µM, first compound 10 µM
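Note: spheroids exposed to compounds for seven days before viability reading.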
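Throughout, for viability, T/C: 100% = DMSO vehicle control viability.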

IC50 [1]: 3.56 µM
IC50 [2]: 4.03 µM
IC50 [3]: 2.31 µM
IC50 [4]: 0.541 µM
IC50 [5]: < 0.0316 µM
IC50 [6]: < 0.0316 µM
SMILES: CC1(C)CCC(Nc2ncc(C(F)(F)F)c(-c3c[nH]c4c(P(C)(C)=O)c(C#N)ccc34)n2)CN1 (stereo unspecified) + Cc1nc(NC(=O)N2CCCC2C(N)=O)sc1-c1ccnc(C(C)(C)C(F)(F)F)c1
viability, T/C [7]: 76.1%
viability, T/C [8]: 55.9%
viability, T/C [9]: 57.9%
viability, T/C [10]: 61.4%
viability, T/C [11]: 55.8%
viability, T/C [12]: 0.33%
viability, T/C [13]: 81.5%
viability, T/C [14]: 54.2%
viability, T/C [15]: 56.7%
viability, T/C [16]: 59%
viability, T/C [17]: 65%
viability, T/C [18]: 0.22%
viability, T/C [19]: 77%
viability, T/C [20]: 65.4%
viability, T/C [21]: 55.4%
viability, T/C [22]: 60.7%
viability, T/C [23]: 48.7%
viability, T/C [24]: 0.44%
viability, T/C [25]: 63.4%
viability, T/C [26]: 57.9%
viability, T/C [27]: 49.5%
viability, T/C [28]: 49.2%
viability, T/C [29]: 28.3%
viability, T/C [30]: 0.27%
viability, T/C [31]: 31%
viability, T/C [32]: 34.3%
viability, T/C [33]: 21.6%
viability, T/C [34]: 29.4%
viability, T/C [35]: 8.8%
viability, T/C [36]: 0.65%
viability, T/C [37]: 7.49%
viability, T/C [38]: 7.95%
viability, T/C [39]: 8.74%
viability, T/C [40]: 4.41%
viability, T/C [41]: 5.08%
viability, T/C [42]: 1.35%

IC50 (compound alone, run of 05/09/2023): > 10 µM
SMILES: CC(Nc1ncnc2nc[nH]c12)c1cc2cccc(Cl)c2c(=O)n1-c1ccccc1 (stereo unspecified)
viability, T/C (compound 0.0316 µM): 97.5% [middle of 8 runs]
viability, T/C (compound 0.1 µM): 102% [middle of 8 runs]
viability, T/C (compound 0.316 µM): 101% [middle of 8 runs]
viability, T/C (compound 1 µM): 101% [middle of 8 runs]
viability, T/C (compound 3.16 µM): 98.6% [middle of 8 runs]
viability, T/C (compound 10 µM): 99.5% [middle of 8 runs]

IC50 [1]: > 10 µM
IC50 [2]: > 10 µM
IC50 [3]: > 10 µM
IC50 [4]: > 10 µM
IC50 [5]: > 10 µM
IC50 [6]: > 10 µM
SMILES: C=CC(=O)N1CCN(c2nc(=O)n(-c3c(C)ccnc3C(C)C)c3nc(-c4c(O)cccc4F)c(F)cc23)C(C)C1 (stereo unspecified) + CC(Nc1ncnc2nc[nH]c12)c1cc2cccc(Cl)c2c(=O)n1-c1ccccc1
viability, T/C [7]: 100%
viability, T/C [8]: 95.4%
viability, T/C [9]: 91.8%
viability, T/C [10]: 90.9%
viability, T/C [11]: 99.7%
viability, T/C [12]: 90.4%
viability, T/C [13]: 99%
viability, T/C [14]: 90.1%
viability, T/C [15]: 96.2%
viability, T/C [16]: 93.7%
viability, T/C [17]: 100%
viability, T/C [18]: 107%
viability, T/C [19]: 95.6%
viability, T/C [20]: 87.4%
viability, T/C [21]: 90%
viability, T/C [22]: 92.2%
viability, T/C [23]: 119%
viability, T/C [24]: 88.8%
viability, T/C [25]: 96.1%
viability, T/C [26]: 110%
viability, T/C [27]: 116%
viability, T/C [28]: 101%
viability, T/C [29]: 112%
viability, T/C [30]: 95%
viability, T/C [31]: 101%
viability, T/C [32]: 91.1%
viability, T/C [33]: 106%
viability, T/C [34]: 101%
viability, T/C [35]: 107%
viability, T/C [36]: 92.3%
viability, T/C [37]: 93.9%
viability, T/C [38]: 89%
viability, T/C [39]: 93.6%
viability, T/C [40]: 76.3%
viability, T/C [41]: 87.5%
viability, T/C [42]: 72.7%

— PubChem BioAssay AID1963983 (Molecular Pharmacology Branch, DTP, NCI, 2024)
